According to patent US8012950B2, “Method to diagnose and treat degenerative joint disease” (Wisconsin Alumni Research Foundation, priority 2003, dated 2011):

Key:
[1] = target: T1, recombinant human cathepsin K (Homo sapiens, UniProt P43235); test: Cathepsin K inhibition assay; type: biochemical
T1 sequence (P43235 115-329): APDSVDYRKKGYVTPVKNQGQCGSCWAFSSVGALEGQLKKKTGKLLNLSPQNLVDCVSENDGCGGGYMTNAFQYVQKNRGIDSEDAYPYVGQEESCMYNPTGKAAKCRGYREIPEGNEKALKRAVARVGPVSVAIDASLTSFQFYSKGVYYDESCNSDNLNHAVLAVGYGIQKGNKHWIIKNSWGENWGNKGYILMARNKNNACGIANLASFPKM
Procedure: Cathepsin K Inhibition Assay: The cathepsin K inhibition assay was modified from a previously described protocol (Votta et al., 1997). Doxycycline, tetracycline and minocycline were dissolved in 0.1 M Tris/0.15M NaCl buffer, pH 7.4. COL-3 was dissolved in 100% ethanol. NPI-3469 was dissolved in dimethylsulphoxide. Ten microliters of doxycycline, tetracycline, minocycline, COL-3, and NPI-3469 were dissolved in buffer and an equal volume of 0.125 μM rh-human cathepsin K standard dissolved in 100 mM sodium acetate buffer, pH 5.5 were mixed in a 96-well microplate and incubated at approximately 25° C. (room temperature) for 15 minutes. Concentrations of the candidate inhibiting compound in the initial mixture were prepared at 10^-7 to 10^-3M. Then 180 μl of an MCA substrate buffer containing 100 mM sodium acetate buffer pH 5.5, 2.5 mM dithiothreitol, 2.5 mM EDTA, and 5 μ[…] substrate (Peptides International, Louisville, KY) was added to the mixture. The microplate was incubated for 60 minutes at approximately 25° C. The fluorescence of each well was then determined using a fluorescent microplate reader set at 360 nm excitation/460 nm emission. Data Analysis: The residual collagenolytic enzyme activity as a percentage of the control was calculated for each concentration of each inhibiting compound. All dilutions of each inhibiting compound were assayed in duplicate and a mean value was calculated for each well.

[2] = target: T2, recombinant human MMP-13 (collagenase 3) (Homo sapiens, UniProt P45452); test: Matrix metalloproteinase-13 inhibition assay; type: biochemical; settings: at 1 mM concentrations
T2 construct: purchased Chondrex, Inc., Redmond, Wash; Cat. No. 3003
Procedure: Matrix Metalloproteinase-13 Inhibition Assay: The MMP-13 (collagenase 3) inhibition assay used a commercially available kit (Chondrex, Inc., Redmond, Wash., Cat. No. 3003) The recombinant human MMP-13 (collagenase 3) was activated by adding 5 μl of a 10 μg/ml solution of recombinant human MMP-13, 90 μl of sample dilution and reaction buffer (Solution B), and 5 μl of p-aminophenylmercuric acetate to each well of a microplate. The microplate was then incubated for 60 minutes at 35° C. Ten microliters of proteinase inhibitor was then added to each well to neutralize non-collagenolytic proteases in the sample solutions. Twenty five microliters of doxycycline, tetracycline, minocycline, COL-3, NPI-3469 (dissolved in buffer as previously described) and 25 μl of solution B were added to each well. Concentrations of the candidate inhibiting compounds in the initial mixture were prepared at 10^−7 to 10^−3 M using solution B. After the microplate was incubated at approximately 25° C. for 30 minutes, 10 μl of stop solution was added to each well and the fluorescence of each well was then determined using a fluorescent microplate reader set at 360 nm excitation/460nm emission. Data Analysis: The residual collagenolytic enzyme activity as a percentage of the control was calculated for each concentration of each inhibiting compound. All dilutions of each inhibiting compound were assayed in duplicate and a mean value was calculated for each well.

[3] = Pharmacokinetic study of oral NPI 3469 in the dog; type: in vivo; settings: 4 beagles, single oral dose 1 mg/kg
Procedure: Pharmacokinetics of oral NPI 3469 (NAEJA Pharmaceuticals, Edmonton, Alberta, Canada) in the dog. We have conducted a pharmokinetic study in 4 beagles using a single oral dose of NPI 3469 given at 1 mg/kg and pharmacokinetic parameters have been determined.

Compound | inhibition of cathepsin K ([1]; at 1 μm) [%] | inhibition of cathepsin K ([1]; at 10 μm) [%] | inhibition of matrix metalloproteinase-13 [2] [%] | inhibition of matrix metalloproteinase-13 (in words) [2] | adverse effects during the treatment period [3]
NC(=O)C1=C(O)CC2CC3Cc4cccc(O)c4C(=O)C3=C(O)C2(O)C1=O (stereo not shown) [COL-3, 4-dedimethylaminosancycline] | 25 | 56 | 57 |  | 
CC(C)C[C@H](NC(=O)OCc1ccccc1)C(=O)NC1=CNC2(CCCC2)NC1=O [NPI-3469, 5-(carbobenzoxy-L-leucyl)amino-2,2-tetramethylene-2,3-dihydro-1H-pyrimidin-4-one] | 47 | 75 |  | did not inhibit | No adverse effects
C[C@H]1c2cccc(O)c2C(=O)C2=C(O)[C@]3(O)C(=O)C(C(N)=O)=C(O)[C@@H](N(C)C)[C@@H]3[C@@H](O)[C@@H]21 [doxycycline] |  |  |  | did not inhibit | 
CN(C)c1ccc(O)c2c1C[C@H]1C[C@H]3[C@H](N(C)C)C(O)=C(C(N)=O)C(=O)[C@@]3(O)C(O)=C1C2=O [minocycline] |  |  | 85 |  | 
CN(C)[C@@H]1C(O)=C(C(N)=O)C(=O)[C@@]2(O)C(O)=C3C(=O)c4c(O)cccc4[C@@](C)(O)[C@H]3C[C@@H]12 [tetracycline] |  |  | 49 |  | 
